Results taken from PubChem BioAssay (NCI).
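Results reflect a 48-hour exposure of cells in 96-well plates to compound at five concentrations. At the GI50, growth is halved. At the TGI there is no net growth.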

How the values were obtained:
Experiment in all cases: NCI anticancer screen, dose series, 48 h
ACHN renal = system: ACHN renal
KM20L2 colon = system: KM20L2 colon
LOX IMVI melanoma = system: LOX IMVI melanoma
M19-MEL melanoma = system: M19-MEL melanoma
NCI-H226 lung = system: NCI-H226 lung
U251 CNS = system: U251 CNS
UO-31 renal = system: UO-31 renal
NCI/ADR-RES ovarian = system: NCI/ADR-RES ovarian
T-47D breast = system: T-47D breast
PC-3 prostate = system: PC-3 prostate

`Cc1c(C(=O)CC(=O)C(=O)Nc2cccc(C(F)(F)F)c2)[n+](=O)c2ccccc2n1[O-]` was tested, and the TGI (ACHN renal) was 15.9 µM, the TGI (KM20L2 colon) was 11.8 µM and the TGI (LOX IMVI melanoma) was 12.7 µM. For the same compound, the TGI (M19-MEL melanoma) was 3.69 µM, the TGI (NCI-H226 lung) was 80.8 µM and the TGI (U251 CNS) was 11 µM. For the same compound, the TGI (UO-31 renal) was 30.2 µM.

Work on `CC[O-].CC[O-].O=Nc1ccc2cc([O-])ccc2c1.O=Nc1ccc2cc([O-])ccc2c1.[Ti+4]` yielded a GI50 (ACHN renal) of 1.58 µM, a TGI (ACHN renal) of 2.96 µM and a GI50 (KM20L2 colon) of 2.83 µM. The TGI (KM20L2 colon) was 8.22 µM, the GI50 (LOX IMVI melanoma) was 1.66 µM and the TGI (LOX IMVI melanoma) was 4.14 µM. The GI50 (M19-MEL melanoma) was 0.728 µM, the TGI (M19-MEL melanoma) was 3.25 µM and the GI50 (NCI-H226 lung) was 1.67 µM. It also gave a TGI (NCI-H226 lung) of 3.86 µM, a GI50 (U251 CNS) of 1.77 µM and a TGI (U251 CNS) of 3.48 µM. The GI50 (UO-31 renal) was 1.78 µM and the TGI (UO-31 renal) was 3.63 µM.

With `CC(C)(C)C(=O)C(c1ccc(-c2cscn2)cc1)c1ccc(-c2cscn2)cc1` the TGI (ACHN renal) was greater than 100 µM, the TGI (KM20L2 colon) was greater than 100 µM and the TGI (LOX IMVI melanoma) was greater than 100 µM. For the same compound, the TGI (M19-MEL melanoma) was greater than 100 µM, the TGI (NCI-H226 lung) was greater than 78.7 µM and the TGI (U251 CNS) was greater than 60.8 µM. It also gave a TGI (UO-31 renal) greater than 81.9 µM.

For `CN(C)CCCn1c2c3ccccc3ccc2c2oc(=O)c3ccccc3c21`, the TGI (ACHN renal) was 15.7 µM, the TGI (KM20L2 colon) was 2.78 µM and the TGI (LOX IMVI melanoma) was 13.3 µM. It also gave a TGI (M19-MEL melanoma) of 8.86 µM, a TGI (NCI-H226 lung) greater than 51.8 µM and a TGI (NCI/ADR-RES ovarian) greater than 26.9 µM. For the same compound, the TGI (T-47D breast) was greater than 100 µM, the TGI (U251 CNS) was 9.26 µM and the TGI (UO-31 renal) was 15.1 µM.

`Cc1ccc(C2=Nc3ccccc3NC(=O)C2)cc1` was tested, and the TGI (ACHN renal) was greater than 100 µM, the TGI (KM20L2 colon) was greater than 100 µM and the TGI (LOX IMVI melanoma) was greater than 100 µM. The TGI (M19-MEL melanoma) was greater than 100 µM, the TGI (NCI-H226 lung) was greater than 100 µM and the TGI (U251 CNS) was greater than 100 µM. For the same compound, the TGI (UO-31 renal) was greater than 100 µM.

For `COc1cc2c(cc1OC)[C@@H](C(O)c1ccccc1)NCC2` (stereo partly drawn), the TGI (ACHN renal) was greater than 100 µM, the TGI (KM20L2 colon) was greater than 100 µM and the TGI (LOX IMVI melanoma) was greater than 100 µM. The TGI (M19-MEL melanoma) was greater than 100 µM, the TGI (NCI-H226 lung) was greater than 100 µM and the TGI (U251 CNS) was greater than 100 µM. The TGI (UO-31 renal) was greater than 100 µM.

`O=Cc1[nH]c2ccccc2c1Br` gave a TGI (ACHN renal) of 82.7 µM, a TGI (KM20L2 colon) of 41.5 µM and a TGI (LOX IMVI melanoma) of 75.7 µM. For the same compound, the TGI (M19-MEL melanoma) was 59.7 µM, the TGI (NCI-H226 lung) was greater than 100 µM and the TGI (U251 CNS) was 51.1 µM. For the same compound, the TGI (UO-31 renal) was 97 µM.

For `COC1=C(C(=O)OC(C)(C)C)[C@]2(C)C(C(=O)OC(C)(C)C)C(OC)=C(C(=O)OC(C)(C)C)[C@]2(C)C1C(=O)OC(C)(C)C` (stereo partly drawn), the TGI (ACHN renal) was greater than 100 µM, the TGI (KM20L2 colon) was greater than 100 µM and the TGI (LOX IMVI melanoma) was greater than 100 µM. It also gave a TGI (M19-MEL melanoma) greater than 100 µM, a TGI (NCI-H226 lung) greater than 100 µM and a TGI (U251 CNS) greater than 100 µM. The TGI (UO-31 renal) was greater than 100 µM.

In the case of `CC(=O)O[C@@H]1CC(C)C2CC2C2=C(C(O)OC2O)[C@@H]1C(C)CCC=C(C)C` (stereo partly drawn), the TGI (ACHN renal) is reported as 90.5 µM, the TGI (KM20L2 colon) is reported as 39.9 µM and the TGI (LOX IMVI melanoma) is reported as 40.9 µM. For the same compound, the TGI (M19-MEL melanoma) was 47.5 µM, the TGI (NCI-H226 lung) was 36.5 µM and the TGI (U251 CNS) was 41.1 µM. It also gave a TGI (UO-31 renal) of 47.6 µM.

For `Cc1cc2c(c(C#N)c1C)NC(=O)C(CC(=O)O)C2=O` (stereo not drawn), the TGI (ACHN renal) was greater than 100 µM, the TGI (KM20L2 colon) was greater than 100 µM and the TGI (LOX IMVI melanoma) was greater than 100 µM. It also gave a TGI (M19-MEL melanoma) greater than 100 µM, a TGI (NCI-H226 lung) greater than 100 µM and a TGI (U251 CNS) greater than 100 µM. It also gave a TGI (UO-31 renal) greater than 100 µM.

In the case of `Cc1ccc(S(=O)(=O)OCC23CCC(C4CC42)C2CC23)cc1` (stereo not drawn), the TGI (ACHN renal) is reported as greater than 100 µM, the TGI (KM20L2 colon) is reported as greater than 100 µM and the TGI (LOX IMVI melanoma) is reported as greater than 100 µM. The TGI (M19-MEL melanoma) was greater than 100 µM, the TGI (NCI-H226 lung) was greater than 100 µM and the TGI (U251 CNS) was greater than 100 µM. It also gave a TGI (UO-31 renal) greater than 100 µM.

Compound `CNS(=O)(=O)NN(C)S(=O)(=O)c1ccc(Br)cc1` has a TGI (ACHN renal) greater than 100 µM, a TGI (KM20L2 colon) greater than 100 µM and a TGI (LOX IMVI melanoma) greater than 100 µM. It also gave a TGI (M19-MEL melanoma) greater than 100 µM, a TGI (NCI-H226 lung) greater than 100 µM and a TGI (U251 CNS) greater than 100 µM. The TGI (UO-31 renal) was greater than 100 µM.

Compound `CCCN(CCC)C(=O)Cc1c2n(c3ccccc13)Cc1ccccc1-2` has a TGI (ACHN renal) greater than 100 µM, a TGI (KM20L2 colon) greater than 100 µM and a TGI (LOX IMVI melanoma) greater than 100 µM. For the same compound, the TGI (M19-MEL melanoma) was greater than 100 µM, the TGI (NCI-H226 lung) was greater than 100 µM and the TGI (U251 CNS) was greater than 100 µM. For the same compound, the TGI (UO-31 renal) was greater than 100 µM.

`CC(=S)NNC(=O)c1ccncc1` gave a TGI (ACHN renal) greater than 100 µM, a TGI (KM20L2 colon) greater than 100 µM and a TGI (LOX IMVI melanoma) greater than 100 µM. It also gave a TGI (M19-MEL melanoma) greater than 100 µM, a TGI (NCI-H226 lung) greater than 100 µM and a TGI (U251 CNS) greater than 100 µM. It also gave a TGI (UO-31 renal) greater than 100 µM.

With `COc1ccc(C=NC23CC4CC(CC(C4)C2)C3)cc1` the TGI (ACHN renal) was greater than 100 µM, the TGI (KM20L2 colon) was greater than 100 µM and the TGI (LOX IMVI melanoma) was greater than 100 µM. For the same compound, the TGI (M19-MEL melanoma) was greater than 10 µM, the TGI (NCI-H226 lung) was greater than 100 µM and the TGI (U251 CNS) was greater than 100 µM. For the same compound, the TGI (UO-31 renal) was greater than 100 µM.

In the case of `CC(=O)Oc1cccc2c1C(=O)C(Br)(Br)CCC2`, the TGI (ACHN renal) is reported as 12.8 µM, the TGI (KM20L2 colon) is reported as 21.7 µM and the TGI (LOX IMVI melanoma) is reported as 6.26 µM. It also gave a TGI (M19-MEL melanoma) of 24.6 µM, a TGI (NCI-H226 lung) of 20.1 µM and a TGI (PC-3 prostate) of 16 µM. For the same compound, the TGI (T-47D breast) was 4.61 µM, the TGI (U251 CNS) was 23.7 µM and the TGI (UO-31 renal) was 23.2 µM.

Compound `O=C(O)c1ccc([N+](=O)[O-])c2c(=O)c3ccccc3[nH]c12` has a TGI (ACHN renal) greater than 100 µM, a TGI (KM20L2 colon) greater than 100 µM and a TGI (LOX IMVI melanoma) greater than 100 µM. It also gave a TGI (M19-MEL melanoma) greater than 100 µM, a TGI (U251 CNS) greater than 100 µM and a TGI (UO-31 renal) greater than 100 µM.

Compound `COc1ccc(/C=C2\CNC/C(=C\c3ccc(OC)cc3)C2=O)cc1` has a TGI (ACHN renal) greater than 100 µM, a TGI (KM20L2 colon) of 89.6 µM and a TGI (LOX IMVI melanoma) of 21.1 µM. For the same compound, the TGI (M19-MEL melanoma) was greater than 100 µM, the TGI (NCI-H226 lung) was greater than 100 µM and the TGI (U251 CNS) was greater than 100 µM. It also gave a TGI (UO-31 renal) greater than 100 µM.

With `C=CCN=C1N=C(CC(=O)OCC)CS1` the TGI (ACHN renal) was greater than 100 µM, the TGI (KM20L2 colon) was greater than 100 µM and the TGI (LOX IMVI melanoma) was greater than 100 µM. For the same compound, the TGI (M19-MEL melanoma) was greater than 100 µM, the TGI (NCI-H226 lung) was greater than 100 µM and the TGI (U251 CNS) was greater than 100 µM. The TGI (UO-31 renal) was greater than 100 µM.
